# Calls of active or inactive are those of the source. For most assays here, no stated cut-off is given here; in the data, actives have a measured EC50 and inactives only a lower limit.
# What was measured:
# [1] = target: T1, Heat shock factor protein 1 (Mus musculus, UniProt P38532); experiment: enhancement of HSF1-driven luciferase signal – cell-based, NIH3T3, luminescence, dose retest, confirmation (AID 435004); format: functional;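 further: stress induced by proteasome inhibitor MG132 added 30 min after compound; luciferase reporter driven by HSF1 response element in NIH3T3 cells; actives raise luminescence as potentiators of the MG132 stress response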
# T1 sequence (P38532 whole entry): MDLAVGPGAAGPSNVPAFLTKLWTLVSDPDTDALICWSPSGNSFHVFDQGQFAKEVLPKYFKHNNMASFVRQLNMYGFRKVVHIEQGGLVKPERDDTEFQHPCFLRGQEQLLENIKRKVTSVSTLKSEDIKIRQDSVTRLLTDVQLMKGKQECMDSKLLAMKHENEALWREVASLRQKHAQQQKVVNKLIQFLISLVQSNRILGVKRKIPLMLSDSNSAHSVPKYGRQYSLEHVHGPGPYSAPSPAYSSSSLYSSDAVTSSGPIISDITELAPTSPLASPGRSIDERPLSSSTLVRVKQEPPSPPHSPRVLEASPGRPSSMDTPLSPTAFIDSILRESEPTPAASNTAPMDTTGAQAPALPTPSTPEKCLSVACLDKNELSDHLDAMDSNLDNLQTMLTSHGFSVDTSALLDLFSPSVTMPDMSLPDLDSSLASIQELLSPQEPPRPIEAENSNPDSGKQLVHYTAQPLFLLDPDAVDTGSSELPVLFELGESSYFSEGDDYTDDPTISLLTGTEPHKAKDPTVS
# INS1 = experiment: INS-1E survival protection against cytokine death – cell-based, luminescence, retest, dose response (AID 449756); format: functional; details: Rattus norvegicus;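 further: cell death triggered by IL-1 beta plus TNF-alpha plus IFN-gamma mixture; protective hits raise ATP signal compared with cytokine alone wells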
# Streptokinase A = target: T2, Streptokinase A (Streptococcus pyogenes serotype M1, UniProt P10520); experiment: viability-normalized secreted streptokinase activity reduction – plasminogen activation absorbance, OD405, dose response (AID 1914); format: functional, Streptococcus pyogenes M1 GAS;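 further: secreted streptokinase activity via plasminogen activation per viability signal from cell pellet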
# T2 sequence (P10520 whole entry): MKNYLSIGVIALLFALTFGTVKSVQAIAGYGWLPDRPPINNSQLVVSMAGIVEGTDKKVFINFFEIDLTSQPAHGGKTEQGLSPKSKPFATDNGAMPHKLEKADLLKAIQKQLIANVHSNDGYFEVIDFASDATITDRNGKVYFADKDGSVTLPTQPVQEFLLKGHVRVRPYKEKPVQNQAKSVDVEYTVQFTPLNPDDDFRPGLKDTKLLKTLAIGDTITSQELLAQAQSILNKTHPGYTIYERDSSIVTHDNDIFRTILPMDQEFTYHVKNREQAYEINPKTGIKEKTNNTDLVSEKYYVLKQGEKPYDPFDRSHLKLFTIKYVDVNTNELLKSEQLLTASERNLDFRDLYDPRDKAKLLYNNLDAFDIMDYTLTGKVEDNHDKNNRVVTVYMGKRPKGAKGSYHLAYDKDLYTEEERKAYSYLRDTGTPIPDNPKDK
# [2] = tested on: Streptococcus sp. 'group A'; experiment: Streptococcus pyogenes SK(-)GAS viability under kanamycin – luminescence, BacTiterGlo, confirmation, counter-screen for streptokinase expression inhibitor project, dose response (AID 1900); format: functional, organism-based
# Streptococcus = experiment: GAS UMAA2166 growth inhibition – luminescence, BacTiterGlo, counter-screen for streptokinase expression inhibitor project, dose response (AID 1915); format: functional, organism-based;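 further: potency for reduction of bacterial viability or growth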
# Cytochrome P450 1A2 = target: T3, Cytochrome P450 1A2 (Homo sapiens, UniProt P05177);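 further: PubChem cytochrome P450 panel assay, CYP1A2 panel member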
# T3 sequence (P05177 whole entry): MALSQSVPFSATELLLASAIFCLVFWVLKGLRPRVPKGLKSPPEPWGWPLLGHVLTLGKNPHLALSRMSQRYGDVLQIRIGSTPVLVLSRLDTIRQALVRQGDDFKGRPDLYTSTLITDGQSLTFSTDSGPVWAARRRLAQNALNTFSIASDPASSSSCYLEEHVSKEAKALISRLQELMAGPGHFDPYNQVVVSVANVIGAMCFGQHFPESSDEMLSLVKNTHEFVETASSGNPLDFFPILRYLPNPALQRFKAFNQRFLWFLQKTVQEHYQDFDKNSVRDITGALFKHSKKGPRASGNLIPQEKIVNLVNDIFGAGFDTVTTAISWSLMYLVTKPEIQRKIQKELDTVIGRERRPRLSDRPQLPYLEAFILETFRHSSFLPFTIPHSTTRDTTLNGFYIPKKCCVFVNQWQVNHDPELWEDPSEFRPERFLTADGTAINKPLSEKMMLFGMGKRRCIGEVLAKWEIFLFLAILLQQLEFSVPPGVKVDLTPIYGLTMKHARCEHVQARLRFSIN
Compound,EC50 [1],also measured
CN1CCN(Cc2c(O)ccc3cc(Br)ccc23)CC1,11.2 µM (active),
O=C(Nc1ccc(Cl)cc1)Nc1csc([N+](=O)[O-])c1,31.4 µM (active),AC50 (INS1): 7.03 µM (active)
O=C(CN1C(=O)NC2(CCCC2)C1=O)NCCN1C(=O)S/C(=C\c2ccccc2F)C1=O,> 260 µM (inactive),
Cc1ccc(CSc2nc3ccccc3c(=O)n2CCCC(=O)NCc2ccco2)cc1,> 260 µM (inactive),
CNc1c(NS(=O)(=O)c2ccc(F)c(Cl)c2)c(=O)oc2ccccc12,> 260 µM (inactive),
COc1ccc(C2N(C(=O)CN3CCCC3)CCCN2S(=O)(=O)c2ccccc2)cc1 (stereo not drawn),> 260 µM (inactive),
CCCc1nc2oc3cc(OC)ccc3c(=O)c2c(=O)n1CCc1ccccc1,> 260 µM (inactive),
Cc1nc(S(=O)(=O)c2ccc(Cl)cc2)c(NCc2ccccc2)o1,> 260 µM (inactive),
O=c1c2ccccc2[nH]c(=S)n1CCC1=CCCCC1,> 260 µM (inactive),
O=C1c2ccccc2C(=O)N1CCC(=O)N1CCCc2ccccc21,> 260 µM (inactive),
O=C(CN1c2ccccc2S(=O)(=O)c2ccccc21)NCc1ccc(F)cc1,> 260 µM (inactive),
FC(F)(F)c1ccc(Sc2nnc(-c3cccs3)n2CC2CCCO2)nc1 (stereo not drawn),> 260 µM (inactive),
CCc1cc2c(SCC#N)ncnc2s1,> 260 µM (inactive),
CC(C)c1ccc(C2NC(=O)c3ccccc3O2)cc1 (stereo not drawn),21.2 µM (active),
CCC(NC(=O)/C(=C\c1ccc2c(c1)OCO2)NC(C)=O)C(=O)O (stereo not drawn),> 260 µM (inactive),
COC(=O)Cn1c2ccc(OC)cc2c2nc(C)sc21,> 260 µM (inactive),
COc1ccc2[nH]c(C)c(CCNc3ccc(C(F)(F)F)cc3[N+](=O)[O-])c2c1,> 260 µM (inactive),
CCOC(=O)N1CCN(C(=O)CS(=O)(=O)c2cn(Cc3ccc(F)cc3)c3ccccc23)CC1,> 260 µM (inactive),
CCCOC(=O)c1ccc(Oc2c[nH]nc2-c2ccc(O)cc2O)cc1,> 260 µM (inactive),EC50 (Streptokinase A): > 150 µM (not active); EC50 [2]: > 150 µM (not active); EC50 (Streptococcus): > 150 µM (not active)
COc1ccc(NC(=O)COC(=O)/C=C/C(=O)OCC(=O)Nc2ccc(OC)c(Cl)c2)cc1Cl,6.53 µM (active),
CC(Oc1ccc(Cl)cc1)C(=O)/C=C/N(C)C (stereo not drawn),> 260 µM (inactive),AC50 (Cytochrome P450 1A2): 15.8 µM (inconclusive)
C=CCNC(=O)c1c(N)n(Cc2ccco2)c2nc3ccccc3nc12,43.4 µM (active),
Cc1ccc(S(=O)(=O)c2c(C)cc(C)nc2N2CCCCC2)cc1,> 260 µM (inactive),
